Assay [1] has as its target T1, HsaCCA (human CCA-adding enzyme, tRNA nucleotidyltransferase) (Homo sapiens, UniProt Q96Q11).
T1 construct: gene TRNT1; N-terminal His-tag, pET28a(+), expressed in E. coli BL21(DE3) delta-cca
T1 sequence (Q96Q11 30-434): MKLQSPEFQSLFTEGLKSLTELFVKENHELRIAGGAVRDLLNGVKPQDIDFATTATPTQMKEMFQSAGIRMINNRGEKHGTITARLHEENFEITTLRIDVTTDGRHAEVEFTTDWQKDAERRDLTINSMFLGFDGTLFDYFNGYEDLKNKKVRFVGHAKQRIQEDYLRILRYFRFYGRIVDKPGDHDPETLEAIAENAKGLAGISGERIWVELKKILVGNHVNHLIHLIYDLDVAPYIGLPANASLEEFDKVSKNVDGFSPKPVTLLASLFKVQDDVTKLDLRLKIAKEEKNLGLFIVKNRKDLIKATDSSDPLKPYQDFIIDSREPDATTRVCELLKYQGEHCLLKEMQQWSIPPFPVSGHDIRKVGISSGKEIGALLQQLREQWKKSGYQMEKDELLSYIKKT
As to the kind of experiment: DRaCALA (nitrocellulose radioligand spot assay). Particulars: 4 °C, 10 min, HEPES/KOH pH 7.6, 30 mM KCl, 6 mM MgCl2, no tRNA; 1 nM labelled compound (α-32P). It is filed as binding.

Assay [2] deals with T2, HsaCCA (human CCA-adding enzyme, tRNA nucleotidyltransferase) (Homo sapiens, UniProt Q96Q11, E193G).
T2 construct: gene TRNT1; N-terminal His-tag, pET28a(+), expressed in E. coli BL21(DE3) delta-cca
T2 sequence (Q96Q11 30-434 E193G): T1 sequence (Q96Q11 30-434) with E164G
As to the kind of experiment: DRaCALA (nitrocellulose radioligand spot assay). The class given is binding. Particulars: 4 °C, 10 min, HEPES/KOH pH 7.6, 30 mM KCl, 6 mM MgCl2, no tRNA; 1 nM labelled compound (α-32P).

The target in assay [3] is T1, HsaCCA (human CCA-adding enzyme, tRNA nucleotidyltransferase). As to the kind of experiment: in vitro nucleotide incorporation on […]-labelled yeast tRNA-Phe-CC. It is filed as biochemical. Particulars: 1 mM ATP, A-addition, co-substrate tRNA-Phe-CC, 37 °C; no binding to apoenzyme detected by DRaCALA.

This note sets out measurements from article PMC11784652, “Two complementing in vivo selection systems based on CCA-trimming exonucleases as a tool to monitor, select and evaluate enzymatic features of tRNA nucleotidyltransferases” (RNA Biology, 2025).

Substitutions are numbered along the chain they refer to.

As to `Nc1ccn([C@@H]2O[C@H](COP(=O)(O)OP(=O)(O)OP(=O)(O)O)[C@@H](O)[C@H]2O)c(=O)n1` [CTP], the “DRaCALA (nitrocellulose radioligand spot assay)” value is “Both HsaCCA wt and HsaCCA E164G showed robust interaction with CTP” in assay [1]; “CTP binding of HsaCCA E164G seems to be less efficient compared to the wt enzyme” in assay [2].

For `Nc1ncnc2c1ncn2[C@@H]1O[C@H](COP(=O)(O)OP(=O)(O)OP(=O)(O)O)[C@@H](O)[C@H]1O` [ATP], in assay [3], the “in vitro nucleotide incorporation on 32P-labelled yeast tRNA-Phe-CC” value is “Both enzyme versions readily add the terminal A if NTPs (N) or only ATP”.
